The nature of the data set: Pharmacokinetic activity in rats: IV bolus and oral gavage; plasma, brain and CSF levels by LC-MS/MS. The data set is classed as in vivo, Male Sprague-Dawley rats. The following applies: rat; for Tmax: PO administration of Compound 6, 10 mg/kg, read-out: median Tmax; for presence in brain samples: levels believed due to contamination of brain samples with blood. Here is the method: Male Sprague-Dawley rats (n=3/group) were assigned to Groups 1 to 6. Group 1 was administered an intravenous bolus dose of 1 mg/kg a test compound in 30% polyethyleneglycol-200 (PEG-200): 10% DMSO in saline. Serial samples of blood were collected at 0.05, 0.15, 0.75, 1.5, 3, 6, 10 and 24 hours via an implanted jugular vein catheter. Groups 2-6 received oral gavage doses of a test compound, formulated in 100% PEG300 (10 mg/kg). Rats from groups 2-6 were sacrificed at 0.25, 2, 6, 10 or 24 hours post-dose and blood samples (1 mL via cardiac puncture) were collected into chilled tubes containing K2EDTA as the anticoagulant. CSF and brain tissue were also collected at these time points. Blood samples were immediately centrifuged at 3000 g for 5 minutes under refrigerated conditions (4° C.). Plasmas and CSF samples were mixed with an aqueous solution of ascorbic acid to reach a final concentration of 2%. Brain, plasma and CSF samples were stored at −80° C. until analysis. The test compound and by-product concentrations were determined by LC-MS/MS. The eluent from a reversed-phase gradient (water/acetonitrile both containing 0.1% v/v formic acid) on a 1290 UHPLC system (Agilent Technologies, Stockport, UK) was introduced by positive electrospray ionization into an API6500 mass spectrometer (AB Sciex, Warrington, UK) and analyzed by multiple reaction monitoring (MRM). The lower limit of quantification (LLOQ) was in the range 1-10 ng/mL for the test compound and by-products. The mean plasma concentration-time data for each group were used to calculate pharmacokinetic parameters of the test compound and by-products with the software program Phoenix WinNonlin version 6.4 (Certara L. P., Princeton, N.J.).

The mark [1] stands for this setting: male, Sprague-Dawley, plasma, PO administration of Compound 6, 10 mg/kg in 100% PEG300, mean, read-out: plasma Cmax.
Setting [2] is: male, Sprague-Dawley, IV bolus 1 mg/kg, plasma.

The text below walks through data of patent US10723704B2, “Pyrazolone derivatives as nitroxyl donors” (Cardioxyl Pharmaceuticals, Inc., priority 2015, dated 2020).

Where two headings read alike, the source gives them in different places.

Consider `CC1(NO)C(=O)N(CC(=O)O)N=C1c1ccc(S(C)(=O)=O)cc1` (stereo not shown) [Compound 6a, 2-[4-(hydroxyamino)-3-(4-methanesulfonylphenyl)-4-methyl-5-oxo-4,5-dihydro-1H-pyrazol-1-yl]acetic acid], for which the “presence in brain samples” value is given as “Traces”. For the same molecule, where the note is “male, Sprague-Dawley, CSF, PO Compound 6 10 mg/kg, at 2 h, read-out: Cmax in CSF”, the Cmax (commonly the maximum level reached in the sampled fluid or tissue) amounted to 107 ± 33 ng/mL. The Cmax (male, Sprague-Dawley, brain, PO Compound 6 10 mg/kg, at 2 h, read-out: Cmax in brain) was 85 ± 22 ng/g. The highest concentration (Cmax) under setting [1] was determined as 5220 ng/mL. In addition, for the setting “male, Sprague-Dawley, plasma”, the Tmax – broadly, the time from dosing to the highest level – was determined as 15 min. Also, under “PO Compound 6 10 mg/kg”, the amount in brain entry was “low”. Also, the “plasma concentration relative to parent compound (Compound 6)” value (PO Compound 6 10 mg/kg, at Cmax (0.25 h)) was determined as 700 fold. Where the note is “PO Compound 6 10 mg/kg, by 2 h”, the “plasma concentration relative to parent compound (Compound 6)” value came out at 2000 fold. Further, where the note is “after dosing Compound 6”, the “share among drug-related components observed in the samples” value is listed as “major drug-related component”. Further, the distribution entry (after oral dosing of Compound 6) is recorded as “restricted to the periphery”.
Regarding `CCOC(=O)Cn1nc(-c2ccc(S(C)(=O)=O)cc2)c(C)c1O` [ethyl 2-[5-hydroxy-3-(4-methanesulfonylphenyl)-4-methyl-1H-pyrazol-1-yl]acetate], the “levels in plasma, brain and CSF (compared with Compound 6a)” value (after dosing Compound 6) was “much lower levels”.
Consider `CCOC(=O)CN1N=C(c2ccc(S(C)(=O)=O)cc2)C(C)(NO)C1=O` (stereo not shown) [Compound 6, Ethyl 2-[4-(hydroxyamino)-3-(4-methanesulfonylphenyl)-4-methyl-5-oxo-4,5-dihydro-1H-pyrazol-1-yl]acetate], for which the “presence in brain samples” value was “Traces”. In addition, the Kp (male, Sprague-Dawley, CSF, PO 10 mg/kg, 0.25-2 h, read-out: mean CSF:plasma ratio) worked out at 4. For the same molecule, where the note is “male, Sprague-Dawley, CSF, PO Compound 6 10 mg/kg, at 0.25 h, read-out: Cmax in CSF”, the Cmax is 26 ± 18 ng/mL. Also, the Kp at 0.25 h (male, Sprague-Dawley, brain, PO 10 mg/kg, 0.25 h, read-out: mean brain:plasma ratio) was found to be 1.1. Besides, the Cmax (male, Sprague-Dawley, brain, PO Compound 6 10 mg/kg, at 0.25 h, read-out: Cmax in brain) is 8 ± 2 ng/g. The clearance (male, Sprague-Dawley, plasma, IV bolus 1 mg/kg in 30% PEG-200:10% DMSO in saline) is 41 ± 2 mL/min/kg. The Vd (male, Sprague-Dawley, plasma, IV bolus 1 mg/kg, read-out: volume of distribution) stood at 1.1 ± 0.1 L/kg. The Cmax under setting [1] came out at 8 ng/mL. In addition, under setting [2], the C0 stood at 110 ± 10 ng/mL and the half-life (commonly the time needed for the level to fall by half in the phase considered) was 24 ± 0.6 min. Also, the Tmax (male, Sprague-Dawley, plasma) was 15 min. Moreover, the “absorption after oral dosing” value (PO 10 mg/kg) is listed as “very well absorbed”. For the setting “after oral dosing”, the metabolism entry is given as “rapidly metabolized at the ester function”.
Take `Cc1c(-c2ccc(S(C)(=O)=O)cc2)nn(CC(=O)O)c1O` [2-[5-hydroxy-3-(4-methanesulfonylphenyl)-4-methyl-1H-pyrazol-1-yl]acetic acid]: the “levels in plasma, brain and CSF (compared with Compound 6a)” value (after dosing Compound 6) is given as “much lower levels”.
